# PMC9386913 (Arthritis Research & Therapy, 2022)
# System: LPS-stimulated PBMCs
# Experiment: Cytokine production in LPS-stimulated PBMCs
# Format: cell-based, human
# Conditions: 0.3, 1, and 3 μM
compound,measurement,setting,value
CCOCc1cnc(Cl)nc1Oc1ccc2c(ccc3sc4c(c32)NC[C@@H](C)NC4=O)n1 [CC-99677],GM-CSF production,PBMCs from AS patients and healthy volunteers,inhibited GM-CSF in PBMCs from AS patients to similar levels as those seen in healthy volunteers
same,TNF production,"PBMCs from AS patients, 1 h pretreatment, LPS 50 ng/mL",concentration-dependent inhibition of TNF production
